From paper PMC8958428 (Yeast (Chichester, England), 2021)

Molecular target: Hem1p (Hem1-His6) (Saccharomyces cerevisiae, UniProt P09950)
Experiment: ALA synthase activity, control reactions
Type: biochemical
Conditions: concentration not told

Chain of Hem1p (Hem1-His6) (P09950 10-548): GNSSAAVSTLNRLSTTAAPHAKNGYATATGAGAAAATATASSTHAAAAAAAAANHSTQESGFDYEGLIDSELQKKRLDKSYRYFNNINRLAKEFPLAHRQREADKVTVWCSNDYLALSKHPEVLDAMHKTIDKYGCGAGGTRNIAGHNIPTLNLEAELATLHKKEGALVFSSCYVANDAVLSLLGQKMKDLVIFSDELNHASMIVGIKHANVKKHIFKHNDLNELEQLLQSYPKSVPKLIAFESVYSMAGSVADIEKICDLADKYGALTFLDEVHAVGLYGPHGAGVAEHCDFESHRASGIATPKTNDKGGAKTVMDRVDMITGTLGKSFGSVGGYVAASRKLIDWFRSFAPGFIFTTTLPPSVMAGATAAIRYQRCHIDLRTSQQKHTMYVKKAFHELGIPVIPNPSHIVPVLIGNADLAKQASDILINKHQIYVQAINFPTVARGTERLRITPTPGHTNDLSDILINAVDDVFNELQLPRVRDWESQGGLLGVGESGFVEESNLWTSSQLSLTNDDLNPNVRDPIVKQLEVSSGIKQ

SMILES | ALA synthase activity, control reactions
N[C@@H](CO)C(=O)O [L-serine] | Control reactions showed that Hem1p was inhibited by both L-serine and L-cysteine
N[C@@H](CS)C(=O)O [L-cysteine] | Control reactions showed that Hem1p was inhibited by both L-serine and L-cysteine
